Counter-ions that a name gives are not always drawn.
Columns and labels:
[1] = test system: MeWo-LM2 cells or endothelial cells; experiment: serum starvation assay; format: cell-based, human; details: 100 μM, 0.2% FBS
Method: The number of viable cells was counter after 8, 16, and 24 hours.

[2] = test system: MeWo human melanoma tumors; experiment: tumor histochemistry (MECA-32, Ki-67, cleaved caspase-3); format: in vivo, mouse
Description: Animals were intracardially perfused with PBS followed by 4% paraformaldehyde (PFA). Fixed lungs were embedded in paraffin and sectioned into 5-μm-thick increments. Macroscopic lung metastatic nodules were visualized by H&E staining. For analysis of tumor endothelial cell content, proliferation, and apoptosis, primary tumor paraffin-embedded sections were stained with antibodies against MECA-32 (Developmental Studies Hybridoma Bank, University of Iowa), KI-67 (ab15580, Abcam), and cleaved caspase-3 (9661, Cell Signaling), respectively.
Tumors were excised from mice and fixed in 4% paraformaldehyde at 4° C. for 48 hours. Then, tumors were paraffin-embedded and sectioned into 5-μm-thick increments. For endothelial cell content analysis in tumors, tumor sections were stained with a primary antibody against the mouse endothelial cell marker MECA-32 (Developmental Studies Hybridoma Bank, The University of Iowa, IA) and counterstained with DAPI nuclear stain. To determine tumor cell proliferation and apoptosis, tumor sections were stained with antibodies against the proliferative marker Ki-67 (Abcam, ab15580, Cambridge, Mass.) and the apoptotic marker cleaved caspase-3 (9661, Cell Signaling, Danvers, Mass.), respectively. Various Alexa Flour dye-conjugated secondary antibodies were used to detect primary antibodies. […] Endothelial cell content density and tumor proliferation rate were quantified by calculating the average percentage of MECA-32 or Ki-67 positively-staining area out of the total tumor area. Tumor apoptosis was measured by counting the number of cleaved caspase-3 expressing cells per given tumor area.

[3] = test system: B-RafV600E/+; Pten−/−; CDKN2A−/− primary mouse melanoma cells; experiment: B-RafV600E/+; Pten−/−; CDKN2A−/− melanoma cells in syngeneic mice; format: in vivo
Method: Melanoma cells used for in vivo metastasis assays were transduced with a stably expressed retroviral construct encoding a luciferase reporter gene (Ponomarev et al., 2004), allowing us to monitor the in vivo progression of melanoma cells by bioluminescence imaging. The following numbers of melanoma cells, resuspended in 100 μL of PBS, were injected intravenously via the tail-vein: 4×10^4 MeWo cells, 2.5×10^5 HT-144 cells, 2×10^5 SK-Mel-334.2 cells, 5×10^4B 16F10 cells, and 1×10^5YUMM cells. The MeWo, HT-144, and SK-Mel-334.2 cells were injected into 6-8 week-old sex-matched NOD scid mice, while the B16F10 and YUMM cells were injected into 6-8 week-old sex-matched C57BL/6 mice. […] To assess the effect of GW3965 treatment on brain metastasis, 1×10^5 MeWo brain-metastatic derivatives were injected intracardially into athymic nude mice. Immediately following injection, mice were randomly assigned to a control diet or GW3965-supplemented diet (100 mg/kg). To determine whether oral delivery of GW3965 can inhibit the progression of incipient metastasis, NOD Scid mice were intravenously injected with 4×10^4MeWo cells and the cells were allowed to colonize the lungs for 42 days, after which mice were blindedly assigned to a control diet or a GW3965-supplemented diet (100 mg/kg) treatment.

[4] = test system: DNAJA4 expression in MeWo cells; experiment: DNAJA4 mRNA expression by qRT-PCR in melanoma cells; format: cell-based, human; details: parental MeWo cells, 48 hours
Method: Total RNA was extracted from various cell lines using the miRvana kit (AM1560, Applied Biosystems, Austin, Tex.). The expression levels of mature miRNAs were quantified using the Taqman miRNA expression assay (4427975-0002228, Applied Biosystems). RNU44 was used as an endogenous control for normalization. For mRNA expression analyses, 600 ng of total RNA was reverse transcribed using the cDNA First-Strand Synthesis Kit (18080-051, Invitrogen), and roughly 200 ng of the resulting cDNA was then mixed with SYBR green PCR Master Mix (4309155, Applied Biosystems) and the appropriate primers. Each reaction was performed in quadruplicate, and mRNA expression was quantified by performing real-time PCR amplification using an ABI Prism 7900HT Real-Time PCR System (Applied Biosystems). GAPDH was used as an endogenous control for normalization. The following primers were used: […]

For “recombinant ApoE3: recombinant human ApoE3 (4696, BioVision)”, the “survival in serum starvation conditions” value [1] was “did not affect”.

For `O=C(O)Cc1cccc(OCCCN(Cc2cccc(C(F)(F)F)c2Cl)CC(c2ccccc2)c2ccccc2)c1` [GW3965 2, 3-[3-[N-(2-Chloro-3-trifluoromethylbenzyl)-(2,2-diphenylethyl)amino]propyloxy] phenylacetic acid hydrochloride], the “decrease in number of actively proliferating tumor cells in vivo” value ([2]; Ki-67) was 23%, the “number of apoptotic cells” value ([2]; cleaved caspase-3) was “without a change” and the “reduction in endothelial cell content of tumors” value ([2]; diet 20 mg/kg, 35 days, MECA-32) was “roughly 2 fold”. For the same compound, the tumor growth ([3]; chow 100 mg/kg) was “robustly inhibited”, the lung metastasis ([3]; diet 100 mg/kg) was “robustly inhibited” and the overall survival ([3]; diet 100 mg/kg) was “extended”. For the same compound, the “expression of DNAJA4” value [4] was “increased expression”.

— US10543183B2, “Treatment and diagnosis of melanoma” (The Rockefeller University, priority 2012, dated 2020)
